| melting point | Compound |
| --- | --- |
| 58 to 62 °C | CC1(Cc2ccc(OCc3ccccc3)cc2)OCCO1 |
| 86 to 87 °C | O=C(O)CCSC(C(=O)O)c1ccccc1CCCCCCCCc1ccccc1 (stereo not drawn) |
| 149 to 150 °C | CCCCCCCCCCCCc1ccc(S(=O)(=O)Nc2nnc(C)s2)cc1 |
| 108 to 112 °C | CCOC(=O)N(c1ccc(C(O)(C(F)(F)F)C(F)(F)F)cc1)S(C)(=O)=O |
| 168 to 170 °C | Cc1cc(O)c(C(C)(C)C)cc1C=O |
| 268 °C | COc1ccc(-c2nc3cnncc3[nH]2)c(OC)c1 |
| 89 to 90 °C | CN(C)CCNC(=O)c1cccc([N+](=O)[O-])c1 |
| 132 to 136 °C | CN1CCCN(c2ccc(/C=C/c3cc(/C=C/c4ccc5cc[nH]c5c4)[nH]n3)c(Br)c2)CC1 |
| 266 to 268 °C | CCCn1nc2c(=O)[nH]c3ccccc3c2c1N |
| 140 °C | CCC(CC)/C(N)=C(\C#N)C(=O)OC(C)C |
| 275 to 277 °C | COc1cc(OC)c2c(=O)[nH]c(-c3ccc(OC4CCN(C(C)=O)CC4)cc3)nc2c1 |
| 136 to 137 °C | O=C(NCCO)c1cccc(-c2cccc3nn(Cc4cccc(C(F)(F)F)c4)cc23)c1 |
| 144 to 146 °C | COCCc1sc2ncnc(N)c2c1-c1ccc(N)cc1 |
| 104 to 105 °C | CCOC(=O)N1CC[C@H](O)[C@@H]1C(c1ccccc1)c1ccccc1 (relative stereo) |
| 109 to 112 °C | CCCCCS(=O)(=O)NC(=O)/C=C/c1cc(OC(C)C)nn1Cc1ccc(Cl)cc1Cl |
| 31 °C | CCOC(=O)c1cc2cc(OCCCCCBr)ccc2o1 |
| 121 to 123 °C | CN(C)C=Nc1ccncc1O |
| 59 to 63 °C | CC(C)(C)OC(=O)[C@@H]1CCC(=O)N1Cc1ccccc1 |
| 125 to 129 °C | Cn1c(C(=O)NCCCn2ccnc2)cc2ccccc21 |
| 145 to 146 °C | CCCc1c(OC)c(OC)cc2c1C(=O)N(CSc1nnnn1-c1ccccc1)S2(=O)=O |
| 39 to 40.6 °C | CCCCCCCCCCCCCCCCC(O)CN(C)CCO (stereo not drawn) |
| 106 to 107 °C | CCN(CC)Cc1cc(C(=O)c2ccccc2)cc(C2CCCCC2)c1O |
| 146 to 147 °C | COC(=O)c1ccc(C2=NC(C)(C)Cc3cc(OC)c4c(c32)CC(C)(C)O4)cc1NC(=O)C(F)(F)F |
| 320 to 325 °C | COc1cc2nc(=O)n3[nH]cnc3c2cc1OC |

| melting point | Compound |
| --- | --- |
| 79 to 82 °C | C#Cc1cc(C)c(Oc2ccc(N)c(Nc3ccc(C#N)cc3)n2)c(C)c1 |
| 202 °C | NC(=O)c1cccc(NC(=O)Cc2cccc(Br)c2)c1 |
| 156 to 157 °C | Cc1cc(CCCOc2c(C)cc(C(=O)O)cc2C)on1 |
| 130 to 131 °C | Cc1ccc(Cn2[nH]c(N)cc2=O)cc1Cl |
| 219 to 221 °C | CC(C)c1cc(C(=O)Nc2ccc(C(=O)O)cc2)sc1C(C)C |
| 164 to 166 °C | CC(C)(C)OC(=O)CN(CC(=O)OC(C)(C)C)S(=O)(=O)c1ccc(N2CCC(NC[C@H](O)c3ccc(O)c(NS(C)(=O)=O)c3)CC2)cc1 |
| 318 to 320 °C | O=C(O)c1ccc(CCc2n[nH]c3c2c(=O)n(-c2ccccc2)c2ncccc32)cc1 |
| 176 to 178 °C | Nc1nc(-c2cc(Cl)ccc2Cl)nc(N2CCC(O)(c3ccccc3)CC2)n1 |
| 127 to 129 °C | Cc1ccccc1-c1ncc(NC(=O)OCc2ccccc2)c(=O)n1CC(=O)NC(Cc1ccccc1)C(=O)C(F)(F)F (stereo not drawn) |
| > 250 °C | Cn1nc(-c2nc(C(N)=O)c(N)nc2-c2ccccc2)ccc1=O |
| 108 to 110 °C | CCn1c(Br)c(Br)c(C#N)c1Br |
| 53 to 58 °C | CC(C)N(CCSc1ccc(F)cc1)C(=O)Oc1ccccc1 |
| 240 to 242 °C | CNC(=O)OCc1cnc2c(NC(=O)c3c(Cl)cccc3Cl)cccc2c1-n1ccnc1 |
| 62 to 64 °C | CCCC(=O)Oc1ccc(-c2nc(-c3ccc(N(C)C)cc3)c(C)[nH]2)cc1OC |
| 112 to 113 °C | CCCCC1(CCCC)CCc2c(OCc3ccccc3C#N)cccc2C1O (stereo not drawn) |
| 115 to 116 °C | O=C(NCCCCC1CCSS1)NCCCCC1CCSS1 (stereo not drawn) |
| 148 to 149 °C | CCC(=O)N(C)c1cccc(C(=O)C=CN(C)C)c1 |
| 106 to 111 °C | CCN1c2ccccc2N(C)C(=O)c2cccnc21 |
| 259 to 260 °C | COc1cc(C(=O)O)ccc1Cn1ccc2ccc(NC(=O)CC3CCCC3)cc21 |
| 237 °C | CS(=O)(=O)c1ccc(C2=C(c3ccc(-c4cscn4)cc3)C(=O)OC2)cc1 |
| 155 to 157 °C | CCC(C)(C)c1ccc(OCCCNC(=O)c2cc(OCCS(=O)(=O)CC)c3ccccc3c2O)c(C(C)(C)CC)c1 |
| 148 to 150 °C | CC(O)c1nc2c(OCc3ccccc3)cccc2n1C (stereo not drawn) |
| 60 °C | Nc1cccc(-c2ccc(CCN3CCN(C(=O)Nc4ccccc4)CC3)cc2)n1 |
| 186 to 189 °C | Cc1ccc(-c2csc(NS(=O)(=O)c3ccc(C)cc3)n2)cc1 |

| melting point | Compound |
| --- | --- |
| 148 to 150 °C | CC1Cc2cc3c(cc2C(c2ccc([N+](=O)[O-])cc2)=NN1C(=O)CCCC(=O)O)OCO3 (stereo not drawn) |
| 132 to 134 °C | CC(C)CNn1c(=O)c(Oc2ccc(F)cc2F)cc2cnc(SCc3ccccc3)nc21 |
| 292 to 294 °C | NCCCNC(=O)c1ccc(-c2ccc3nnn(Cc4ccc5ncccc5c4)c3n2)cc1F |
| 116 to 118 °C | CN(C)S(=O)(=O)c1ccc(Oc2ccc([N+](=O)[O-])cc2)cc1 |
| 107 to 109 °C | CC(=O)OCCCc1c2ccccc2cc2ccccc12 |
| 123 to 125 °C | Cc1ccccc1NC(=O)CN1CCN(c2ncccc2C#N)CC1 |
| 191 °C | COC(=O)c1c(C(C)C)nc2c(c1-c1ccc(F)cc1)CCC(=O)N2 |
| 81 to 83.5 °C | COc1oc(=O)n(-c2ccccc2)c1C |
| 96 to 97 °C | CON(C)C(=O)Nc1ccc(OCCc2cccc(C)n2)cc1 |
| 53 to 54 °C | CON=C(C#N)c1ccccc1COc1ccccc1C |
| 62 to 64 °C | Cc1ccc(F)c(OCCCC(=O)O)c1 |
| 138 to 140 °C | CCOC(=O)c1c(C)nc2c(c1N)c1ccccc1n2Cc1ccc(OC)cc1 |
| 148 to 151 °C | CCCNC(=O)C1(CCCc2ccc(N3C(=O)c4ccccc4C3=O)cc2)c2ccccc2-c2ccccc21 |
| 157 °C | CCC(Cc1c(I)cc(I)c(NC(=O)CCl)c1I)C(=O)O (stereo not drawn) |
| 87 to 91 °C | CCCCCCCCNC(=O)/C=C\SC(=O)c1ccc(F)cc1 |
| 175 to 177 °C | O=C(O)c1cc(S(=O)(=O)N2CCC(CCl)CC2)ccc1Cl |
| 152 °C | CCOC(=O)c1cn(CC)c2nc(N3CCN(Cc4ccccc4)CC3)ncc2c1=O |
| 85 to 87 °C | Clc1ccc(Sc2ccc(-c3ccccc3)s2)cc1 |
| 155 to 157 °C | CCON=C(CC)C1=C(O)CC(c2ccc(Oc3ccc(S(C)(=O)=O)cc3)cc2)CC1=O (stereo not drawn) |
| 148 to 150 °C | COc1nc2ccccc2nc1NC(=O)N1CCN(c2cccc(Br)c2)CC1 |
| 115 to 116 °C | ONC(=S)CCc1ccc(F)cc1 |
| 124 to 125 °C | CS(=O)(=O)c1cccc(-c2ccccc2[N+](=O)[O-])c1 |
| 192 to 193 °C | CCCOc1ccc(C)c2c(=O)c(-c3ccc(OC)cc3)c[nH]c12 |
| 132 °C | CCOC(=O)C(Cc1ccc(N)s1)NC(=O)OC(C)(C)C (racemic) |

| melting point | Compound |
| --- | --- |
| 146 to 147 °C | COc1cc(NC(=O)CC#N)cc(OC)c1OC |
| 57 °C | OCCc1ccc(N2CCOCC2)cc1 |
| 79 to 84 °C | CCN1C(=O)C(C)(C)C(=O)N(C)c2cc(CN(CCn3ccc4oc(C)cc4c3=O)Cc3cccc(C=O)c3)ccc21 |
| 108 to 110 °C | OC1Cc2cc(Br)ccc2Sc2ccccc21 (stereo not drawn) |
| 117 to 119 °C | O=C(NCC1(O)CCCCCC1)c1cc(-c2cccnc2N2CCC(C(=O)O)CC2)ccc1Cl |
| 71 to 74 °C | COc1cc(F)c(C)cc1[N+](=O)[O-] |
| 76 to 77 °C | CCCCCCCCCCCCCCOc1ccc(CN2C(=O)c3ccncc3C2=O)cc1 |
| 134 to 135 °C | COc1cc2c(cc1OCc1ccccc1)CCCN(Cc1cc(OC)c(OC)c(OC)c1)C2=O |
| 293 °C | Cc1ccc(S(N)(=O)=O)cc1NC(=O)c1cnn2c(C(F)F)cc(-c3ccc(C(F)(F)F)cc3)nc12 |
| 69 to 72 °C | COc1cc(OC)c(CSC(C)(C)CCO)c(OC)c1 |
| 207 to 208 °C | O=C1NCCc2c(CCc3ccccc3)[nH]c3cccc1c23 |
| 84 to 88 °C | CC(C)(C)OC(=O)NCCON=C(c1ccccc1)c1cc2ccncc2[nH]1 |
| 260 °C | CC(=O)Nc1nc2c(Oc3cc(-c4ccc(C(F)(F)F)cc4Br)ncn3)cccc2s1 |
| 191 to 192 °C | CC(C)CC(NC(=O)C(Cc1c[nH]cn1)NC(=O)C(Cc1cccc2ccccc12)NC(=O)OCc1ccccc1)C(O)CC(=O)O (stereo not drawn) |
| 136 to 137 °C | COC1=C(OC)C(=O)C(CCCCCCCCCC(=O)N[C@H](CCC(=O)O)C(N)=O)=C(C)C1=O |
| 149 to 150 °C | c1ccc(CN2CCN(c3nc4nccc(-c5cccnc5)n4n3)CC2)cc1 |
| 252 to 254 °C | CC(=O)Nc1ccc(Oc2ccccc2)c2c(=O)c3ccccc3n(C)c12 |
| 109 to 110 °C | CC(=O)OC1CC2=CCC3C4CCC(C(C)CCCC(C)C)C4(C)CCC3C2(C)C(OC(C)=O)C1OC(C)=O (stereo not drawn) |
| 132 to 140 °C | CN1CCC(C2Oc3cc(Cl)ccc3Cn3c(Cl)ccc32)CC1 (stereo not drawn) |
| 185 to 187 °C | COc1nc(C)nc2c1-c1ccc(Cl)cc1C(c1ccccc1)=NC2 |
| 103 to 104 °C | Cc1ccccc1SC(NC=O)c1sccc1C (stereo not drawn) |

| Compound | melting point |
| --- | --- |
| O=C(CCC1CCCCC1)NC1N=C(c2ccccc2)c2ccccc2NC1=NO (stereo not drawn) | 196 °C |
| CN1C[C@H](CN2CCN(C(c3ccccc3)c3ccccc3)CC2)C[C@@H]2c3cccc4[nH]cc(c34)C[C@H]21 | 230 to 233 °C |
| O=C(OC1CCCCC1)c1ncn2c1[C@@H]1CCCN1C(=O)c1c(Br)cccc1-2 | 167 to 168 °C |
| CNC(=O)Nc1ccc(CCN2CCC(Nc3nc4ccccc4n3Cc3ccc(F)cc3)CC2)cc1 | 300 °C |
| O=C1C2CCN(CC2)C1Cc1ccc(-c2ccc(F)cc2)cc1 (stereo not drawn) | 122 to 123 °C |

From a melting point compilation (Tetko et al.; mined from patent text by program, amines drawn as free bases though some values may be those of a salt)
